The source of these data is US9873702B2, “Heterocyclic compounds as biogenic amine transport modulators” (Southern Research Institute, priority 2014, dated 2018).

Where two headings read alike, the source gives them in different places.

For experiment [1], the target named is T1, serotonin transporter (SERT) (Rattus norvegicus, UniProt P31652).
T1 construct: Freshly removed whole brain minus cerebellum and caudate was homogenized; from tissue; host or cells: rat whole brain minus cerebellum and caudate, synaptosomes
T1 sequence (P31652 whole entry): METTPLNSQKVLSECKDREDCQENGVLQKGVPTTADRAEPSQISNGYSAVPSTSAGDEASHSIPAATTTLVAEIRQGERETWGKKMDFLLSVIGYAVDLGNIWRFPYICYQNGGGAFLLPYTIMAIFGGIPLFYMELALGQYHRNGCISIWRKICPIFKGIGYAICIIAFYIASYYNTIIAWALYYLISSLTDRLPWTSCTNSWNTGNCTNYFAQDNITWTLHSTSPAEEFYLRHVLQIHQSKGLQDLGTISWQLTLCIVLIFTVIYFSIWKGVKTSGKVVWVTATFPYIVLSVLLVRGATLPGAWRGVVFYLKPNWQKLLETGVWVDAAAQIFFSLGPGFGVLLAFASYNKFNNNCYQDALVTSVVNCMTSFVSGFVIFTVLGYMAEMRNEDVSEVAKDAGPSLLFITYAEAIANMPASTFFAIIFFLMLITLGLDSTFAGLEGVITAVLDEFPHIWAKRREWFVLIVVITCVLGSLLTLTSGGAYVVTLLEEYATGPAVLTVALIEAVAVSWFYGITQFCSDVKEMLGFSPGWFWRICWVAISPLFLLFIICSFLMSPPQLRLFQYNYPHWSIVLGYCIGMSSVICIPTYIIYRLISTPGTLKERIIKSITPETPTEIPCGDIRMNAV
The experiment in a line: Serotonin reuptake ([^3H]serotonin uptake) inhibition in rat brain synaptosomes. It is filed as biochemical. The conditions noted are these: for Emax: read-out: SERT Uptake Emax; for IC50: read-out: SERT Uptake IC50.

Experiment [2] has as its target T2, dopamine transporter (DAT) (Rattus norvegicus, UniProt P23977). The experiment is described as follows: Dopamine transporter-mediated [^3H]MPP^+ release, shift of D-amphetamine-induced release, rat caudate synaptosomes. Also noted: Freshly removed caudate was homogenized in 10% ice-cold sucrose; from tissue; host or cells: rat caudate synaptosomes. Type of experiment: biochemical.

The target in experiment [3] is T2, dopamine transporter (DAT). The experiment is described as follows: Dopamine reuptake ([^3H]dopamine uptake) inhibition in rat brain synaptosomes.
Procedure: Freshly removed caudate was homogenized in 10% ice-cold sucrose with 12 strokes of a hand-held Potter-Elvehj em homogenizer followed by centrifugation at 1000×g for 10 min. The supernatants were saved on ice and used immediately. Transporter activity was assessed using 5 nM [^3H]dopamine. […] The selectivity of the uptake assay for dopamine active transporter (DAT) was optimized by including 100 nM citalopram and 100 nM desipramine as blockers of serotonin transporter (SERT) and norepinephrine transporter (NET) in the sucrose solution and assay buffer. Uptake inhibition assays were conducted at 25° C. and were initiated by adding 100 μl of tissue to 900 μL assay buffer containing test drug and [^3H]dopamine. Test drugs were diluted in assay buffer containing 1 mg/mL bovine serum albumin. Nonspecific uptake was measured by incubating in the presence of 10 μM indatraline. The reactions were stopped after 15 minutes by rapid vacuum filtration with a cell harvester (BRANDEL) over GF/B filters (Whatman) presoaked in wash buffer maintained at 25° C. (10 mM Tris-HCl, pH 7.4/150 mM NaCl). Filters were rinsed with 6 mL wash buffer and retained tritium was quantified by a MicroBeta liquid scintillation counter (PerkinElmer) after overnight extraction in 0.6 mL of liquid scintillation cocktail (Cytoscint, ICN). The data from three experiments were pooled and fit to a dose-response curve equation (using Kaleidagraph), to yield an Emax and EC50 value.
The data from three experiments were pooled and fit to a dose-response curve equation (using KaleidaGraph; Synergy Software, Reading, Pa.) to yield an Emax and IC50 value.
The target of experiment [4] is norepinephrine transporter (NET) (Rattus norvegicus, UniProt Q9WTR4). The experiment is described as follows: Norepinephrine reuptake ([^3H]norepinephrine uptake) inhibition in rat brain synaptosomes. The conditions noted are these: for NE Uptake Emax (% I ± SD): maximal inhibition from dose-response fit.
Experiment [5] deals with T2, dopamine transporter (DAT). The experiment is described as follows: d-Amphetamine-induced DAT-mediated [^3H]DA release. Type of experiment: biochemical. Also noted: Freshly removed caudate was homogenized in 10% ice-cold sucrose; from tissue; host or cells: rat caudate synaptosomes. The settings on record: Apparent Kc = [Blocker]/((EC50-2/EC50-1) − 1), negative when shifted EC50 is less than control.

Another experiment addresses T3, DAT (Rattus norvegicus, UniProt P23977).
T3 construct: from tissue; host or cells: rat caudate membranes
The experiment in a line: Dopamine transporter binding, inhibition of [^3H]WIN35428 binding in rat caudate membranes. The conditions noted are these: for Emax: 2 h, read-out: DAT Binding εmax. Summed up:
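Rat caudate membranes in 50 mM sodium phosphate pH 7.4 with protease inhibitors, EDTA/EGTA and BSA were incubated with 1 nM [^3H]WIN35428 and test drug for 2 hours at 25° C. Filtration-retained tritium measured; three pooled experiments fit to dose-response to give Emax and EC50.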

Experiment [6] has as its target T2, dopamine transporter (DAT). The experiment in a line: Time course of [^3H]DA uptake/accumulation. It is filed as biochemical. Also noted: Freshly removed caudate was homogenized in 10% ice-cold sucrose; from tissue; host or cells: rat caudate synaptosomes.
Where [7] appears, read: Emax of D-amphetamine for [^3H]MPP^+ release in presence of 50 nM test compound.
[8] abbreviates: [3H]MPP+ release, Apparent Kc = [Blocker]/((EC50-2/EC50-1) − 1), negative when shifted EC50 is less than control.
[9] abbreviates: IC50 for DAT Uptake Inhibition, rounded value as listed in Table 10.
[10] abbreviates: read-out: Emax for DAT Uptake Inhibition.
The mark [11] stands for this setting: rat brain synaptosomes, 10 nM [^3H]norepinephrine.
Setting [12] is: read-out: NE Uptake EC50 (nM ± SD), rat brain synaptosomes, 10 nM [^3H]norepinephrine, 10 min, 37° C.
The mark [13] stands for this setting: read-out: NET Uptake IC50, mean ± S.D., n = 3.
[14] abbreviates: inhibition of [3H]WIN35428 binding, mean ± S.D., n = 3.
Where [15] appears, read: apparent Ke from shift of D-amphetamine-induced [^3H]MPP^+ release, compound at the concentration of column 1, read-out: Ke App.
[16] abbreviates: DAT Uptake IC50, [3H]DA uptake inhibition, mean ± S.D., n = 3.

T3 sequence (P23977 whole entry): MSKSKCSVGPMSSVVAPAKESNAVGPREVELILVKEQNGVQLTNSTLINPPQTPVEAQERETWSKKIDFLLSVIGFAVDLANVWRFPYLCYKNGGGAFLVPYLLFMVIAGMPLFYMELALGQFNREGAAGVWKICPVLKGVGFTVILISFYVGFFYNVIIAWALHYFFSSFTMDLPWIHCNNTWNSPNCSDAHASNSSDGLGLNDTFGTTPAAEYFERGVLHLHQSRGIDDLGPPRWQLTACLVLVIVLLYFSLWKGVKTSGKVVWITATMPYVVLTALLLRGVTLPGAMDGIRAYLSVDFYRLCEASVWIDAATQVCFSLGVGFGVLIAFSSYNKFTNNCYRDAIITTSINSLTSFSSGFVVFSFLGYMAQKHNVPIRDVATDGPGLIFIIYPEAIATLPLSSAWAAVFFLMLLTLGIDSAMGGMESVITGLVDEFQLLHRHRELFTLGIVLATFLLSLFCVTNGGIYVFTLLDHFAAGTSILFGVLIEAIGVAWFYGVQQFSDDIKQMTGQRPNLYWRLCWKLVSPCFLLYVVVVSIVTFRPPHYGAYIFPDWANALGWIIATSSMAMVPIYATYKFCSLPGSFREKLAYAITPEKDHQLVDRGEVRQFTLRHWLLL
T2 sequence (P23977 whole entry): as above

For `c1ccc(C(CNc2nc(-c3ccc4nccn4c3)nc3ccccc23)c2ccccc2)cc1` [compound 55, N-(2,2-Diphenylethyl)-2-(Imidazo[1,2-a]Pyridin-6-yl)Quinazolin-4-Amine], the Emax in experiment [1] (mean ± S.D., n = 3) came to 52 ± 2%; in experiment [3] (read-out: DAT Uptake Emax), 68 ± 2%; in experiment [3] (setting [10]) it was 68%; in experiment [6] (dose-dependent decrease of maximum [^3H]DA accumulation, read-out: Emax of decrease of the Emax of [^3H]DA accumulation), 69 ± 1%; in experiment [6] (maximum level of [^3H]DA accumulation, 1 nM compound 55), 89 ± 4; in experiment [6] (maximum level of [^3H]DA accumulation, 4 nM compound 55) it was 71 ± 2. For the same compound, the Emax in experiment [6] (maximum level of [^3H]DA accumulation, 8 nM compound 55) turned out to be 58 ± 2; in experiment [6] (maximum level of [^3H]DA accumulation, 25 nM compound 55) it was 43 ± 3. The IC50 in experiment [1] (mean ± S.D., n = 3) was 23 ± 5 nM; in experiment [3] (setting [9]), 2 nM; in experiment [3] (IC50 for inhibition of DAT uptake, [^3H]DA uptake, text of b784), 2.3 ± 0.4 nM; in experiment [4] (setting [12]), 52 ± 15 nM; in experiment [4] (setting [13]), 52 ± 15 nM. Besides, in experiment [1] (partial versus full inhibition), the “efficacy of SERT uptake inhibition, in words” value was “partial inhibitor”. The “D-Amphetamine Emax (% ± SD)” value in experiment [2] (setting [7]) was 103 ± 3%. Besides, the “Apparent Kc” value in experiment [2] (setting [8]) is -368 nM; in experiment [5] it was -239 nM. For the same compound, in experiment [2] (d-amphetamine-induced DAT-mediated [^3H]MPP^+ release, blocking concentration ˜25 times IC50 for DAT uptake inhibition), the “effect on the d-amphetamine Emax value, in words” value is “decreased”. In addition, the “efficacy of [^3H]DA (DAT) uptake inhibition, in words” value in experiment [3] (partial versus full inhibition) was “partial inhibitor”. Also, the “Emax for DAT Uptake Inhibition” value in experiment [3] (value as listed in Table 10) was 68%. Besides, in experiment [4] (mean ± S.D., n = 3), the “NET Uptake Emax” value is on record as 72 ± 4%. Also, the “efficacy of NET uptake inhibition, in words” value in experiment [4] (partial versus full inhibition) was “partial inhibitor”. The “NE Uptake Emax (% I ± SD)” value in experiment [4] (setting [11]) was 72 ± 4 % I. In addition, on DAT (setting [14]), the “DAT Binding εmax” value is “Inactive”. Moreover, the Emax at 0.001 µM in experiment [6] ([^3H]DA accumulation, 1 nM compound 55, read-out: Inhibition of the Emax value (%)) was found to be 11%. Besides, the Emax at 0.004 µM in experiment [6] ([^3H]DA accumulation, 4 nM compound 55, read-out: Inhibition of the Emax value (%)) came to 29%. For the same compound, the Emax at 0.008 µM in experiment [6] ([^3H]DA accumulation, 8 nM compound 55, read-out: Inhibition of the Emax value (%)) was found to be 42%. Also, in experiment [6] ([^3H]DA accumulation, 25 nM compound 55, read-out: Inhibition of the Emax value (%)), the Emax at 0.025 µM stood at 57%. Besides, the “effect on the Emax of [^3H]DA accumulation, in words” value in experiment [6] (time course of [^3H]DA uptake) is given as “decreased the Emax in a dose-dependent manner”.

For `Cc1cc2nccn2cc1-c1nc(NCC(c2ccccc2)c2ccccc2)c2ccccc2n1` [compound 118, N-(2,2-Diphenylethyl)-2-(7-Methylimidazo[1,2-A]Pyridin-6-yl)Quinazolin-4-Amine], the Emax in experiment [1] (mean ± S.D., n = 3) turned out to be 58 ± 3%; in experiment [3] (read-out: DAT Uptake Emax) it was 63 ± 2%; in experiment [3] (setting [10]) it was 63%; on DAT it was 79 ± 3%. Also, the IC50 stood at 3.2 ± 0.9 nM in experiment [1] (mean ± S.D., n = 3); 0.5 ± 0.1 nM in experiment [3] (setting [16]); 0.5 nM in experiment [3] (setting [9]); 21 ± 7 nM in experiment [4] (setting [12]); 21 ± 7 nM in experiment [4] (setting [13]). Also, the “D-Amphetamine Emax (% ± SD)” value in experiment [2] (Emax of D-amphetamine for [^3H]MPP^+ release in presence of 12.5 nM test compound) is 104 ± 3%. The “Apparent Kc” value in experiment [2] (setting [8]) is given as 267 nM. Moreover, the Kb in experiment [2] (setting [15]) was found to be 267 nM. Further, the “NET Uptake Emax” value in experiment [4] (mean ± S.D., n = 3) was determined as 67 ± 3%. For the same compound, in experiment [4] (setting [11]), the “NE Uptake Emax (% I ± SD)” value is reported as 67 ± 3 % I.

Consider `Cl.Fc1ccc2c(NCC(c3ccccc3)c3ccccc3)nc(-c3ccc4nccn4c3)nc2c1` [compound 124, N-(2,2-Diphenylethyl)-7-Fluoro-2-(Imidazo[1,2-A]Pyridin-6-yl)Quinazolin-4-Amine Hydrochloride], for which the IC50 turned out to be 25 ± 7 nM in experiment [1] (mean ± S.D., n = 3); 7.4 ± 1.1 nM in experiment [3] (setting [16]); 7 nM in experiment [3] (setting [9]); 94 ± 22 nM in experiment [4] (setting [12]); 94 ± 22 nM in experiment [4] (setting [13]). Moreover, the Emax in experiment [1] was found to be 49 ± 2%; in experiment [3] (read-out: DAT Uptake Emax), 69 ± 1%; in experiment [3] (setting [10]) it was 69%. Besides, in experiment [2], the “Apparent Kc” value is on record as 3200 nM. In experiment [2], the Kb was determined as 3200 nM. Moreover, the “D-Amphetamine Emax (% ± SD)” value in experiment [2] (Emax of D-amphetamine for [^3H]MPP^+ release in presence of 200 nM test compound) stood at 104 ± 5%. Moreover, the “NET Uptake Emax” value in experiment [4] (mean ± S.D., n = 3) amounted to 63 ± 3%. The “NE Uptake Emax (% I ± SD)” value in experiment [4] (setting [11]) came to 63 ± 3 % I. The “DAT Binding IC50” value at DAT (setting [14]) is reported as “Inactive”. Further, the “DAT Binding εmax” value on DAT (setting [14]) is “Inactive”.

With `Cc1cc2nccn2cc1-c1nc(NCC(c2ccccc2)c2ccc[nH]2)c2ccccc2n1` (stereo not shown) [compound 140, 2-(7-Methylimidazo[1,2-A]Pyridin-6-yl)-N-(2-Phenyl-2-(1H-Pyrrol-2-yl)Ethyl)Quinazolin-4-Amine], the Emax in experiment [1] (mean ± S.D., n = 3) amounted to 54 ± 2%; in experiment [3] (read-out: DAT Uptake Emax) it was 69 ± 1%; in experiment [3] (setting [10]) it was 69%; on DAT it was 91 ± 7%. The IC50 in experiment [1] (mean ± S.D., n = 3) came out at 3.1 ± 0.7 nM; in experiment [3] (setting [16]) it was 1.2 ± 0.1 nM; in experiment [3] (setting [9]), 1 nM; in experiment [4] (setting [12]), 11 ± 4 nM; in experiment [4] (setting [13]), 11 ± 4 nM. For the same compound, the “D-Amphetamine Emax (% ± SD)” value in experiment [2] (Emax of D-amphetamine for [^3H]MPP^+ release in presence of 25 nM test compound) worked out at 105 ± 3%. Moreover, the “Apparent Kc” value in experiment [2] (setting [8]) worked out at 55 nM. The “NET Uptake Emax” value in experiment [4] (mean ± S.D., n = 3) was 70 ± 4%. For the same compound, the “NE Uptake Emax (% I ± SD)” value in experiment [4] (setting [11]) was 70 ± 4 % I.

As to `Cc1cc2nccn2cc1-c1nc(NCC(c2ccccc2)c2ccncc2)c2ccccc2n1` (stereo not shown) [compound 151, 2-(7-Methylimidazo[1,2-A]Pyridin-6-yl)-N-(2-Phenyl-2-(Pyridin-4-yl)Ethyl)Quinazolin-4-Amine], the IC50 in experiment [1] (mean ± S.D., n = 3) turned out to be 2.4 ± 0.4 nM; in experiment [3] (setting [16]), 1.9 ± 0.3 nM; in experiment [3] (setting [9]), 2 nM; in experiment [4] (setting [13]), 17 ± 4 nM. In addition, the “D-Amphetamine Emax (% ± SD)” value in experiment [2] (setting [7]) is 103 ± 3%. Also, the “Apparent Kc” value in experiment [2] (setting [8]) came to 400 nM. In addition, in experiment [2] (setting [15]), the Kb stood at 400 nM. The Emax came out at 72 ± 2% in experiment [3] (read-out: DAT Uptake Emax), 72% in experiment [3] (setting [10]) and 92 ± 4% on DAT. Further, the “NET Uptake Emax” value in experiment [4] (mean ± S.D., n = 3) is on record as 61 ± 2%.

With `Cc1cc2nccn2cc1-c1nc(NCC(O)(c2ccccc2)c2ccccc2)c2ccccc2n1` [compound 152, 2-((2-(7-Methylimidazo[1,2-A]Pyridin-6-yl)Quinazolin-4-yl)Amino)-1,1-Diphenylethanol], the IC50 was determined as 3 ± 0.6 nM in experiment [1] (mean ± S.D., n = 3); 1.7 ± 0.1 nM in experiment [3] (setting [16]); 2 nM in experiment [3] (setting [9]); 16 ± 5 nM in experiment [4] (setting [13]). Also, the “D-Amphetamine Emax (% ± SD)” value in experiment [2] (setting [7]) is given as 104 ± 4%. Also, the “Apparent Kc” value in experiment [2] (setting [8]) amounted to 46 nM. In addition, the Emax came to 69 ± 1% in experiment [3] (read-out: DAT Uptake Emax) and 52 ± 8% at DAT. In addition, the “NET Uptake Emax” value in experiment [4] (mean ± S.D., n = 3) stood at 69 ± 4%.
